IC50 and Emax data for 19 compounds are collected here from US20260137706A1, “METHODS OF TREATING INFLAMMATORY DISEASES” (INTERLINE THERAPEUTICS, INC., priority 2023, published 2026).

Experiment [1] concerns the target T1, GST-RIPK2 fusion protein (human RIPK2, amino acids 1-310) (Homo sapiens, UniProt O43353).
T1 construct: made in house; host or cells: baculovirus infected Sf9 cells
Briefly: RIPK2 binding competition assay (TR-FRET, Tracer 199 displacement). To be noted: 10 nM Tracer 199, 1 nM GST-RIPK2, read-out: RIPK2 IC50. In outline:
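IC50 derived from the TR-FRET emission ratio (665/620 nm, 337 nm excitation), normalized with no-inhibitor and no-enzyme controls. Incubation 45 min at 22 °C, pH 7.5 Tris buffer, with final 10 nM tracer, 1 nM Sf9-expressed GST-RIPK2 fragment (aa 1-310) and 0.5 nM Tb-labelled anti-GST.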

Experiment [2] concerns the target T2, binding of His-XIAP(BIR2)-avi fusion protein to GST-RIPK2 fusion protein (RIPK2/XIAP) (Homo sapiens, UniProt O43353).
T2 construct: made in house; host or cells: baculovirus infected Sf9 cells
Briefly: RIPK2-XIAP binding competition PPI assay (TR-FRET). Conditions: RIPK2/XIAP binding competition PPI assay; for Emax: Amax, read-out: PPI Amax bin; for IC50: read-out: PPI IC50 bin. In outline:
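Compounds (in DMSO, 100-fold stock) incubated 120 min at 23 °C with 1 nM GST-RIPK2 (aa 1-310) and 25 nM His-XIAP(BIR2 aa 152-231)-avi, plus anti-His-XL665 and anti-GST-Tb, in pH 7.5 Tris buffer. Read-out: 665/520 nm emission ratio. Normalized to no-inhibitor (0%) and 50 nM GSK583 (−100%); Amax binned A–D.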
For orientation: In TR-FRET formats the signal depends on donor and acceptor labels being close together.

For experiment [3], the system named is NF-κB pathway (SEAP) in THP1-Dual cells. As to the kind of experiment: THP-1 Dual cell SEAP assay (L18-MDP stimulated). Format: cell-based. To be noted: Homo sapiens, THP1-Dual, read-out: NF-κB THP1 IC50 bin. In outline: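 IC50 values derive from non-linear regression of % inhibition, calculated against DMSO/L18-MDP-treated wells after media-only subtraction. NF-κB SEAP activity was read at OD 620-655 nm (QUANTI-Blue, 2 h, 37 °C) from supernatants of THP1-Dual cells. Cells had been compound-treated 30 min before overnight (20-24 h) stimulation with 10 ng/mL final L18-MDP.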

T2 sequence (O43353 1-310 limits assumed): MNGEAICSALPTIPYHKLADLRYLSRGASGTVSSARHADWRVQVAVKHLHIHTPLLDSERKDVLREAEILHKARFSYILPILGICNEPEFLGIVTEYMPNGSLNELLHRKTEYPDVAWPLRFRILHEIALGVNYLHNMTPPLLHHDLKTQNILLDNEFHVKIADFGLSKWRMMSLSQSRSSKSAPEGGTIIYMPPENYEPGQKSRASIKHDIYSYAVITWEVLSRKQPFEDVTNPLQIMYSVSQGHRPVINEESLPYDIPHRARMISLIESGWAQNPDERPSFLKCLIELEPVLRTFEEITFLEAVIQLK
T1 sequence (O43353 1-310): as the sequence (O43353 1-310 limits assumed) above

The term IC50 denotes the midpoint of a concentration-inhibition curve. As for `COc1cc2ncc(-c3cc(NS(=O)(=O)c4cnn(C)c4)c(OC)c(OC)c3)n2cc1S(=O)(=O)C(C)(C)C` [Example 244, N-(5-(6-(tert-butylsulfonyl)-7-methoxyimidazo[1,2-a]pyridin-3-yl)-2,3-dimethoxyphenyl)-1-methyl-1H-pyrazole-4-sulfonamide], the values for the half-inhibitory concentration (IC50) in experiment [1], in experiment [2] and in experiment [3] were 1 to 2.5 nM, less than 1 nM and less than 50 nM, respectively. For the same compound, the Emax in experiment [2] is greater than 80%.

`COc1cc(-c2cnc3cc(OCCO)c(S(=O)(=O)C(C)(C)C)cn23)cc(NS(=O)(=O)c2cnn(C)c2)c1OC` [Example 245, N-(5-(6-(tert-butylsulfonyl)-7-(2-hydroxyethoxy)imidazo [1,2-a]pyridin-3-yl)-2,3-dimethoxyphenyl)-1-methyl-1H-pyrazole-4-sulfonamide]: the 50% inhibitory concentration (IC50) in experiment [1] was 1 to 2.5 nM; in experiment [2], less than 1 nM; in experiment [3], less than 50 nM. In experiment [2], the Emax is greater than 80%.

Consider `CC(C)(C)S(=O)(=O)c1cc2c(-c3cc(F)c(N)nc3F)cnn2cc1OCC(O)CO` (stereo not shown) [Example 246, 3-((3-(6-amino-2,5-difluoropyridin-3-yl)-5-(tert-butylsulfonyl)pyrazolo [1,5-a]pyridin-6-yl)oxy)propane-1,2-diol], for which the IC50 in experiment [1] is 1 to 2.5 nM; in experiment [2] it was 1 to 2.5 nM; in experiment [3] it was 50 to 250 nM. Further, the Emax in experiment [2] was greater than 80%.

As for `CC(C)(C)S(=O)(=O)c1cc2c(-c3cc(Cl)c(N)nc3F)cnn2cc1OCC(O)CO` (stereo not shown) [Example 247, 3-((3-(6-amino-5-chloro-2-fluoropyridin-3-yl)-5-(tert-butylsulfonyl)pyrazolo [1,5-a]pyridin-6-yl)oxy)propane-1,2-diol], the figures for the 50% inhibitory concentration (IC50) in experiment [1], in experiment [2] and in experiment [3] were 1 to 2.5 nM, 1 to 2.5 nM and 50 to 250 nM, respectively. For the same compound, the Emax in experiment [2] was greater than 80%.

With `COc1cc2ncc(-c3cc(F)c(OC)c(NS(=O)(=O)c4cnc(O)nc4)c3)n2cc1S(=O)(=O)C(C)(C)C` [Example 248, N-(5-(6-(tert-butylsulfonyl)-7-methoxyimidazo[1,2-a]pyridin-3-yl)-3-fluoro-2-methoxyphenyl)-2-hydroxypyrimidine-5-sulfonamide], the IC50 is 2.5 to 20 nM in experiment [1], 2.5 to 20 nM in experiment [2] and greater than 1000 nM in experiment [3]. Also, the Emax in experiment [2] is 55 to 80%.

As to `CC(C)(C)S(=O)(=O)c1cn2c(-c3ccc(N)nc3F)cnc2cc1OCCO` [Example 249, 2-((3-(6-amino-2-fluoropyridin-3-yl)-6-(tert-butylsulfonyl)imidazo [1,2-a]pyridin-7-yl)oxy)ethan-1-ol], the figures for the IC50 in experiment [1], in experiment [2] and in experiment [3] were greater than 20 nM, greater than 20 nM and greater than 1000 nM, respectively. Besides, in experiment [2], the Emax is greater than 80%.

For `C[C@@H](O)COc1cc2ncc(-c3ccc(N)nc3F)n2cc1S(=O)(=O)C(C)(C)C` [Example 250, (R)-1-((3-(6-amino-2-fluoropyridin-3-yl)-6-(tert-butylsulfonyl)imidazo [1,2-a]pyridin-7-yl)oxy)propan-2-ol], the half-maximal inhibitory concentration (IC50) in experiment [1] is 2.5 to 20 nM; in experiment [2] it was greater than 20 nM; in experiment [3], greater than 1000 nM. Moreover, in experiment [2], the Emax was greater than 80%.

`C[C@@H](O)COc1cc2ncc(-c3cc4cc[nH]c4nc3F)n2cc1S(=O)(=O)C(C)(C)C` [Example 251, (R)-1-((6-(tert-butylsulfonyl)-3-(6-fluoro-1H-pyrrolo[2,3-b]pyridin-5-yl)imidazo[1,2-a]pyridin-7-yl)oxy)propan-2-ol]: the values for the concentration for half-maximal inhibition (IC50) in experiment [1], in experiment [2] and in experiment [3] were less than 1 nM, less than 1 nM and less than 50 nM, respectively. Besides, in experiment [2], the Emax was greater than 80%.

Take `CCS(=O)(=O)Nc1cc(-c2cnc3cc(OC[C@@H](C)O)c(S(=O)(=O)C(C)(C)C)cn23)cc(F)c1OC` [Example 252, (R)-N-(5-(6-(tert-butylsulfonyl)-7-(2-hydroxypropoxy)imidazo[1,2-a]pyridin-3-yl)-3-fluoro-2-methoxyphenyl) ethanesulfonamide]: the half-maximal inhibitory concentration (IC50) in experiment [1] was less than 1 nM; in experiment [2] it was less than 1 nM; in experiment [3] it was less than 50 nM. Besides, the Emax in experiment [2] is greater than 80%.

Turning to `COc1c(F)cc(-c2cnc3cc(OC[C@@H](C)O)c(S(=O)(=O)C(C)(C)C)cn23)cc1NS(=O)(=O)c1cnn(C)c1` [Example 253, (R)-N-(5-(6-(tert-butylsulfonyl)-7-(2-hydroxypropoxy)imidazo [1,2-a]pyridin-3-yl)-3-fluoro-2-methoxyphenyl)-1-methyl-1H-pyrazole-4-sulfonamide], the IC50 in experiment [1] was 1 to 2.5 nM; in experiment [2] it was less than 1 nM; in experiment [3] it was less than 50 nM. For the same compound, in experiment [2], the Emax was greater than 80%.

As to `C[C@@H](O)COc1cn2ncc(-c3cc(Cl)c(N)nc3F)c2cc1S(=O)(=O)C(C)(C)C` [Example 254, (R)-1-((3-(6-amino-5-chloro-2-fluoropyridin-3-yl)-5-(tert-butylsulfonyl)pyrazolo [1,5-a]pyridin-6-yl)oxy)propan-2-ol], the IC50 fell in the range of 1 to 2.5 nM in experiment [1], 1 to 2.5 nM in experiment [2] and 50 to 250 nM in experiment [3]. The Emax in experiment [2] was greater than 80%.

`COc1c(F)cc(-c2cnc3cc(OC[C@@H](C)O)c(S(=O)(=O)C(C)(C)C)cn23)cc1NS(C)(=O)=O` [Example 255, (R)-N-(5-(6-(tert-butylsulfonyl)-7-(2-hydroxypropoxy)imidazo [1,2-a]pyridin-3-yl)-3-fluoro-2-methoxyphenyl) methanesulfonamide]: the IC50 was 1 to 2.5 nM in experiment [1], less than 1 nM in experiment [2] and 50 to 250 nM in experiment [3]. Moreover, in experiment [2], the Emax lay within 55 to 80%.

In the case of `CC(C)(C)S(=O)(=O)c1cn2c(-c3cc(Cl)c(N)nc3F)cnc2cc1NCCO` [Example 256, 2-((3-(6-amino-5-chloro-2-fluoropyridin-3-yl)-6-(tert-butylsulfonyl)imidazo [1,2-a]pyridin-7-yl)amino)ethan-1-ol], the IC50 was 1 to 2.5 nM in experiment [1], less than 1 nM in experiment [2] and less than 50 nM in experiment [3]. Also, the Emax in experiment [2] was greater than 80%.

On to `CC(C)(C)S(=O)(=O)c1cn2c(-c3cc(Cl)c(N)nc3F)cnc2cc1CCCO` [Example 257, 3-(3-(6-amino-5-chloro-2-fluoropyridin-3-yl)-6-(tert-butylsulfonyl)imidazo [1,2-a]pyridin-7-yl)propan-1-ol], for which the results for the IC50 in experiment [1], in experiment [2] and in experiment [3] were 2.5 to 20 nM, 2.5 to 20 nM and 250 to 1000 nM, respectively. The Emax in experiment [2] was greater than 80%.

For `C[C@H](CO)Oc1cc2ncc(-c3cc(Cl)c(N)nc3F)n2cc1S(=O)(=O)C(C)(C)C` [Example 258, (R)-2-((3-(6-amino-5-chloro-2-fluoropyridin-3-yl)-6-(tert-butylsulfonyl)imidazo [1,2-a]pyridin-7-yl)oxy)propan-1-ol], the IC50 in experiment [1] fell in the range of 2.5 to 20 nM; in experiment [2], 2.5 to 20 nM; in experiment [3], 250 to 1000 nM. Moreover, the Emax in experiment [2] was greater than 80%.

On to `C[C@@H](O)COc1cn2ncc(-c3cc(F)c(N)nc3F)c2cc1S(=O)(=O)C(C)(C)C` [Example 259, (R)-1-((3-(6-amino-2,5-difluoropyridin-3-yl)-5-(tert-butylsulfonyl)pyrazolo [1,5-a]pyridin-6-yl)oxy)propan-2-ol], for which the values for the half-maximal inhibitory concentration (IC50) in experiment [1], in experiment [2] and in experiment [3] were 2.5 to 20 nM, 1 to 2.5 nM and 50 to 250 nM, respectively. Moreover, the Emax in experiment [2] is greater than 80%.

For `COc1cc2ncc(-c3cc(F)c(OC)c(NS(=O)(=O)c4cnn(C)c4)c3)n2cc1C1(F)CCNCC1` [Example 276, N-(3-fluoro-5-(6-(4-fluoropiperidin-4-yl)-7-methoxyimidazo[1,2-a]pyridin-3-yl)-2-methoxyphenyl)-1-methyl-1H-pyrazole-4-sulfonamide], the figures for the concentration for half-maximal inhibition (IC50) in experiment [1], in experiment [2] and in experiment [3] were 1 to 2.5 nM, less than 1 nM and 50 to 250 nM, respectively. The Emax in experiment [2] was greater than 80%.

On to `CC(C)(C)S(=O)(=O)c1cn2c(-c3cnc4[nH]ccc4n3)cnc2cc1OCCO` [Example 277, 2-((6-(tert-butylsulfonyl)-3-(5H-pyrrolo[2,3-b]pyrazin-2-yl)imidazo[1,2-a]pyridin-7-yl)oxy)ethan-1-ol], for which the figures for the IC50 in experiment [1], in experiment [2] and in experiment [3] were 2.5 to 20 nM, greater than 20 nM and 250 to 1000 nM, respectively. Besides, the Emax in experiment [2] was less than 30%.

`CC(C)(C)S(=O)(=O)c1cn2c(-c3ccc4[nH]ccc4n3)cnc2cc1OCCO` [Example 278, 2-((6-(tert-butylsulfonyl)-3-(1H-pyrrolo[3,2-b]pyridin-5-yl)imidazo[1,2-a]pyridin-7-yl)oxy)ethan-1-ol]: the IC50 in experiment [1] is greater than 20 nM; in experiment [2], 2.5 to 20 nM; in experiment [3], greater than 1000 nM. Further, in experiment [2], the Emax lay in the range of 30 to 55%.
